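Method: 48-hour compound exposure of cells in 96-well plates, five concentrations, linear interpolation of endpoints. TGI: concentration producing complete growth inhibition.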
Legend:
Test in all cases: inhibition of tumour cell growth, NCI panel, 48 h
[1] = tested on: 786-0 renal
[2] = tested on: A498 renal
[3] = tested on: A549 NSCLC
[4] = tested on: ACHN renal
[5] = tested on: BT-549 breast
[6] = tested on: CAKI-1 renal
[7] = tested on: CCRF-CEM leukemia
[8] = tested on: COLO 205 colon
[9] = tested on: DU-145 prostate
[10] = tested on: EKVX NSCLC
[11] = tested on: HCC-2998 colon
[12] = tested on: HCT-116 colon
[13] = tested on: HCT-15 colon
[14] = tested on: HL-60(TB) leukemia
[15] = tested on: HOP-62 NSCLC
[16] = tested on: HOP-92 NSCLC
[17] = tested on: HS 578T breast
[18] = tested on: HT29 colon
[19] = tested on: IGROV1 ovarian
[20] = tested on: K-562 leukemia
[21] = tested on: KM12 colon
[22] = tested on: LOX IMVI melanoma
[23] = tested on: M14 melanoma
[24] = tested on: MALME-3M melanoma
[25] = tested on: MCF7 breast
[26] = tested on: MDA-MB-231 breast
[27] = tested on: MDA-MB-435
[28] = tested on: MDA-N
[29] = tested on: MOLT-4 leukemia
[30] = tested on: NCI-H226 lung
[31] = tested on: NCI-H23 lung
[32] = tested on: NCI-H460 lung
[33] = tested on: NCI-H522 lung
[34] = tested on: NCI/ADR-RES ovarian
[35] = tested on: OVCAR-3 ovarian
[36] = tested on: OVCAR-4 ovarian
[37] = tested on: OVCAR-5 ovarian
[38] = tested on: OVCAR-8 ovarian
[39] = tested on: PC-3 prostate
[40] = tested on: RPMI-8226 leukemia
[41] = tested on: RXF 393 renal
[42] = tested on: SF-268 CNS
[43] = tested on: SF-295 CNS
[44] = tested on: SF-539 CNS
[45] = tested on: SK-MEL-2 melanoma
[46] = tested on: SK-MEL-28 melanoma
[47] = tested on: SK-MEL-5 melanoma
[48] = tested on: SK-OV-3 ovarian
[49] = tested on: SN12C renal
[50] = tested on: SNB-19 CNS
[51] = tested on: SNB-75 CNS
[52] = tested on: SR leukemia
[53] = tested on: SW-620 colon
[54] = tested on: T-47D breast
[55] = tested on: TK-10 renal
[56] = tested on: U251 CNS
[57] = tested on: UACC-257 melanoma
[58] = tested on: UACC-62 melanoma
[59] = tested on: UO-31 renal

## Cc1ccc(C(=O)CCl)o1
[1]
  TGI: 9.71 µM
[2]
  TGI: > 10 µM
[3]
  TGI: > 10 µM
[4]
  TGI: > 10 µM
[5]
  TGI: > 10 µM
[6]
  TGI: > 7.23 µM
[7]
  TGI: > 7.83 µM
[8]
  TGI: > 8.18 µM
[9]
  TGI: > 10 µM
[10]
  TGI: > 10 µM
[11]
  TGI: > 10 µM
[12]
  TGI: 6.62 µM
[13]
  TGI: > 10 µM
[14]
  TGI: 4.22 µM
[15]
  TGI: > 10 µM
[16]
  TGI: > 10 µM
[17]
  TGI: > 10 µM
[18]
  TGI: > 10 µM
[19]
  TGI: > 10 µM
[20]
  TGI: > 10 µM
[21]
  TGI: > 10 µM
[22]
  TGI: 8.76 µM
[23]
  TGI: > 10 µM
[24]
  TGI: > 8.31 µM
[25]
  TGI: > 10 µM
[26]
  TGI: > 10 µM
[27]
  TGI: > 10 µM
[28]
  TGI: > 10 µM
[29]
  TGI: 5.68 µM
[30]
  TGI: > 10 µM
[31]
  TGI: > 10 µM
[32]
  TGI: > 10 µM
[33]
  TGI: > 5.46 µM
[34]
  TGI: > 10 µM
[35]
  TGI: > 10 µM
[36]
  TGI: > 10 µM
[37]
  TGI: > 9.57 µM
[38]
  TGI: > 6.61 µM
[39]
  TGI: > 10 µM
[40]
  TGI: 5.42 µM
[41]
  TGI: > 10 µM
[42]
  TGI: > 10 µM
[43]
  TGI: > 10 µM
[44]
  TGI: > 10 µM
[45]
  TGI: > 10 µM
[46]
  TGI: > 10 µM
[47]
  TGI: > 10 µM
[48]
  TGI: > 10 µM
[49]
  TGI: > 10 µM
[50]
  TGI: > 10 µM
[51]
  TGI: > 10 µM
[52]
  TGI: > 10 µM
[53]
  TGI: 5 µM
[54]
  TGI: > 7.79 µM
[55]
  TGI: > 10 µM
[56]
  TGI: > 10 µM
[57]
  TGI: > 10 µM
[58]
  TGI: > 10 µM
[59]
  TGI: > 6.21 µM

## Clc1ccc(C2c3ccccc3-c3nc4ccccc4n32)cc1 (configuration not stated)
[1]
  TGI: 51 µM
[2]
  TGI: > 79.9 µM
[3]
  TGI: > 78.7 µM
[4]
  TGI: > 100 µM
[5]
  TGI: > 100 µM
[6]
  TGI: > 100 µM
[7]
  TGI: > 100 µM
[8]
  TGI: > 100 µM
[9]
  TGI: > 100 µM
[10]
  TGI: > 73.9 µM
[11]
  TGI: > 75.2 µM
[12]
  TGI: > 53.3 µM
[13]
  TGI: > 100 µM
[14]
  TGI: > 83.3 µM
[15]
  TGI: 62.8 µM
[16]
  TGI: > 100 µM
[17]
  TGI: > 100 µM
[18]
  TGI: > 88.9 µM
[19]
  TGI: > 86.1 µM
[20]
  TGI: > 100 µM
[21]
  TGI: > 100 µM
[22]
  TGI: 59.2 µM
[23]
  TGI: 99 µM
[24]
  TGI: 82.3 µM
[25]
  TGI: > 68.1 µM
[26]
  TGI: > 100 µM
[27]
  TGI: > 100 µM
[28]
  TGI: > 100 µM
[29]
  TGI: > 51.7 µM
[30]
  TGI: > 64.5 µM
[31]
  TGI: > 100 µM
[32]
  TGI: > 100 µM
[33]
  TGI: 67.9 µM
[34]
  TGI: > 68.2 µM
[35]
  TGI: 37.2 µM
[36]
  TGI: > 73 µM
[37]
  TGI: > 75 µM
[38]
  TGI: > 79.5 µM
[39]
  TGI: > 77.1 µM
[40]
  TGI: > 65 µM
[41]
  TGI: 17.8 µM
[42]
  TGI: > 63.9 µM
[43]
  TGI: > 36.6 µM
[44]
  TGI: > 95.4 µM
[45]
  TGI: > 65.4 µM
[46]
  TGI: > 100 µM
[47]
  TGI: > 100 µM
[48]
  TGI: > 39 µM
[49]
  TGI: > 100 µM
[50]
  TGI: > 64.8 µM
[51]
  TGI: > 100 µM
[52]
  TGI: > 54.4 µM
[53]
  TGI: > 100 µM
[54]
  TGI: > 100 µM
[55]
  TGI: > 100 µM
[56]
  TGI: > 100 µM
[57]
  TGI: > 100 µM
[58]
  TGI: > 69.4 µM
[59]
  TGI: > 60.5 µM

## CC(C)(C)c1cc(C(C)(C)C)c2c(c1O)OC(=O)CS2
[1]
  TGI: 28.5 µM
[2]
  TGI: 66.9 µM
[3]
  TGI: > 68.2 µM
[4]
  TGI: > 41 µM
[5]
  TGI: 23.9 µM
[6]
  TGI: > 62.7 µM
[7]
  TGI: > 25.3 µM
[8]
  TGI: 9.89 µM
[9]
  TGI: 51.6 µM
[10]
  TGI: 25.6 µM
[11]
  TGI: 14 µM
[12]
  TGI: 13.4 µM
[13]
  TGI: 14.9 µM
[14]
  TGI: 10.7 µM
[15]
  TGI: 32.6 µM
[16]
  TGI: > 47.7 µM
[17]
  TGI: 20 µM
[18]
  TGI: 21.5 µM
[19]
  TGI: > 60.2 µM
[20]
  TGI: 40.6 µM
[21]
  TGI: 17.8 µM
[22]
  TGI: 24 µM
[23]
  TGI: 41.2 µM
[24]
  TGI: > 93.7 µM
[25]
  TGI: > 31.2 µM
[26]
  TGI: 52.4 µM
[27]
  TGI: 20.1 µM
[28]
  TGI: 14.8 µM
[29]
  TGI: > 45.8 µM
[30]
  TGI: 26.3 µM
[31]
  TGI: 18.1 µM
[32]
  TGI: 9.13 µM
[33]
  TGI: 14.3 µM
[34]
  TGI: 20.6 µM
[35]
  TGI: 18.1 µM
[36]
  TGI: > 74.6 µM
[37]
  TGI: 41 µM
[38]
  TGI: > 78 µM
[39]
  TGI: > 64.7 µM
[40]
  TGI: > 100 µM
[41]
  TGI: 13.7 µM
[42]
  TGI: 23.2 µM
[43]
  TGI: 18.8 µM
[44]
  TGI: 12.5 µM
[45]
  TGI: 28.1 µM
[46]
  TGI: > 54.5 µM
[47]
  TGI: 9.77 µM
[48]
  TGI: > 95.1 µM
[49]
  TGI: 21.8 µM
[50]
  TGI: 21.5 µM
[51]
  TGI: 6.84 µM
[52]
  TGI: > 48.7 µM
[53]
  TGI: 37.7 µM
[54]
  TGI: 22.9 µM
[55]
  TGI: 21.7 µM
[56]
  TGI: 17.9 µM
[57]
  TGI: > 66.7 µM
[58]
  TGI: 5.11 µM
[59]
  TGI: 20.5 µM

Source: PubChem BioAssay (NCI)
